Results published in EPA's ToxRefDB 2.

Legend:
rat [1] = conditions: Multigenerational reproductive toxicity study, sprague dawley, Oral, Feed, dose end: 2 generation, group: parental
rat [2] = conditions: Combined chronic toxicity/carcinogenicity, sprague dawley, Oral, Feed, dose end: 104 week, group: systemic
rat [3] = conditions: Developmental neurotoxicity study, sprague dawley, Oral, Gavage/Intubation, dose end: 105 PND, group: cannot be grouped
mouse = conditions: Subchronic oral toxicity in rodents, b6c3f1, Gavage/Intubation, dose end: 94 day, group: systemic, systemic / pathology microscopic / liver / vacuolization cytoplasmic + systemic / clinical chemistry / alkaline phosphatase (alp/alk) / …
rat [4] = conditions: Subchronic oral toxicity in rodents, sprague dawley, Feed, dose end: 90 day, group: systemic, systemic / pathology gross / sperm measure / sperm count + systemic / pathology gross / sperm measure / sperm motility
rat [5] = conditions: Multigenerational reproductive toxicity study, sprague dawley, Oral, [Not Specified], dose end: 2 generation
dog = conditions: Chronic toxicity, beagle, Oral, Feed, dose end: 104 week, group: systemic
rat [6] = conditions: Prenatal developmental toxicity study, sprague dawley, Oral, Gavage/Intubation, dose end: 20 GD
[7] = systemic / in life observation / body weight / body weight gain + systemic / in life observation / body weight / body weight
[8] = systemic / in life observation / body weight / body weight + systemic / in life observation / body weight / body weight gain
[9] = developmental / developmental landmark / eye opening / eye opening + developmental / developmental landmark / incisor eruption / incisor …
[10] = developmental / developmental landmark / incisor eruption / incisor eruption + developmental / developmental landmark / eye opening / eye …
[11] = group: offspring, systemic / in life observation / body weight / offspring (pup) weight
[12] = group: parental, systemic / in life observation / body weight / body weight + systemic / in life observation / clinical signs / [other] + systemic / in life …
[13] = group: reproductive, reproductive / reproductive performance / gestational length / gestational length
[14] = systemic / clinical chemistry / alkaline phosphatase (alp/alk) / alkaline phosphatase (alp/alk) + systemic / organ weight / liver / absolute…
[15] = systemic / pathology microscopic / spleen / hemosiderosis
[16] = group: developmental, developmental / developmental malformation / bone / misaligned + developmental / developmental malformation / mouth / jaw / protruding …
[17] = group: maternal, systemic / in life observation / body weight / body weight gain + systemic / in life observation / food consumption / food consumption + …

COC(=O)c1ccccc1S(=O)(=O)NC(=O)Nc1nc(C)nc(OC)n1 [Metsulfuron-methyl]
LOAEL (rat [1]; systemic / in life observation / body weight / body weight gain): 250 mg/kg/day
LEL (rat [1]; [7]): 250 mg/kg/day
NEL (rat [1]; [7]): 25 mg/kg/day
NOAEL (rat [1]; [7]): 25 mg/kg/day
LOAEL (rat [2]; [8]): 250 mg/kg/day
NEL (rat [2]; [8]): 1.25 mg/kg/day
NOAEL (rat [2]; [8]): 125 mg/kg/day
LEL (rat [2]; systemic / in life observation / body weight / body weight gain + systemic / in life observation / body weight / body weight + systemic / …): 25 mg/kg/day

CC(=O)OC/C=C(C)/C=C/C=C(C)/C=C/C1=C(C)CCCC1(C)C [Retinol acetate]
LOAEL (rat [3]; [9]): > 34.4 mg/kg/day
NOAEL (rat [3]; [9]): ≥ 34.4 mg/kg/day
LEL (rat [3]; [10]): 8.6 mg/kg/day
NEL (rat [3]; [10]): < 8.6 mg/kg/day

CO[C@H]1/C=C/O[C@@]2(C)Oc3c(C)c(O)c4c(O)c(c(/C=N/N5CCN(C)CC5)c(O)c4c3C2=O)NC(=O)/C(C)=C\C=C\[C@H](C)[C@H](O)[C@@H](C)[C@@H](O)[C@@H](C)[C@H](OC(C)=O)[C@@H]1C [Rifampicin]
LEL (mouse): 100 mg/kg/day
LOAEL (mouse): 100 mg/kg/day
NEL (mouse): < 100 mg/kg/day
NOAEL (mouse): < 100 mg/kg/day

O=C(O)c1ccc(C(=O)O)cc1 [Terephthalic acid]
LEL (rat [4]): 5820 mg/kg/day
LOAEL (rat [4]): > 5820 mg/kg/day
NEL (rat [4]): 1180 mg/kg/day
NOAEL (rat [4]): ≥ 5820 mg/kg/day

CC(C)N(C(=O)SCC(Cl)=C(Cl)Cl)C(C)C [Tri-allate]
LEL (rat [5]; [11]): 2.5 mg/kg/day
NEL (rat [5]; [11]): < 2.5 mg/kg/day
NOAEL (rat [5]; [11]): 7.5 mg/kg/day
LOAEL (rat [5]; group: offspring, systemic / in life observation / body weight / offspring (pup) weight + developmental / offspring survival late / [other] / [other]): 30 mg/kg/day
LOAEL (rat [5]; [12]): 30 mg/kg/day
NEL (rat [5]; [12]): 2.5 mg/kg/day
NOAEL (rat [5]; [12]): 7.5 mg/kg/day
LEL (rat [5]; group: parental, systemic / in life observation / body weight / body weight + systemic / organ weight / ovary / relative to body weight + systemic / organ …): 7.5 mg/kg/day
LEL (rat [5]; [13]): 30 mg/kg/day
LOAEL (rat [5]; [13]): 30 mg/kg/day
NEL (rat [5]; [13]): 7.5 mg/kg/day
NOAEL (rat [5]; [13]): 7.5 mg/kg/day
LOAEL (dog; [14]): 5 mg/kg/day
NOAEL (dog; [14]): 1.5 mg/kg/day
LEL (dog; [15]): 1.5 mg/kg/day
NEL (dog; [15]): < 1.5 mg/kg/day
LEL (rat [6]; [16]): 90 mg/kg/day
LOAEL (rat [6]; [16]): 90 mg/kg/day
NEL (rat [6]; [16]): 30 mg/kg/day
NOAEL (rat [6]; [16]): 30 mg/kg/day
LOAEL (rat [6]; group: maternal, systemic / in life observation / body weight / body weight gain + systemic / in life observation / food consumption / food consumption): 30 mg/kg/day
LEL (rat [6]; [17]): 30 mg/kg/day
NEL (rat [6]; [17]): 10 mg/kg/day
NOAEL (rat [6]; [17]): 10 mg/kg/day
